Source: patent US10065970B2 (Genentech, Inc., priority 2015, dated 2018)

molecular target: PI3Kα (alpha) (Homo sapiens (Human), UniProt P42336); assay: p110α (alpha) PI3K Binding Assay (ADP-Glo lipid kinase reaction); type: biochemical; conditions: PI3K alpha 0.2 nM, ATP 40 μM, PIP2:3PS 50 μM, 120 min, room temperature; Ki by Morrison Equation; read-out: PI3Kα-(alpha) ATP (Ki) micromolar
In short: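 Enzyme with PIP2:3PS lipid substrate and ATP/MgCl2 in 50 mM HEPES, 50 mM NaCl, 3 mM MgCl2, 0.01% BSA, 1% DMSO, 120 min at room temperature. ADP formed detected by ADP-Glo luminescence. Ki from 10-point dose-response curves via the Morrison equation.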

PI3Kα (alpha), sequence (P42336 whole entry): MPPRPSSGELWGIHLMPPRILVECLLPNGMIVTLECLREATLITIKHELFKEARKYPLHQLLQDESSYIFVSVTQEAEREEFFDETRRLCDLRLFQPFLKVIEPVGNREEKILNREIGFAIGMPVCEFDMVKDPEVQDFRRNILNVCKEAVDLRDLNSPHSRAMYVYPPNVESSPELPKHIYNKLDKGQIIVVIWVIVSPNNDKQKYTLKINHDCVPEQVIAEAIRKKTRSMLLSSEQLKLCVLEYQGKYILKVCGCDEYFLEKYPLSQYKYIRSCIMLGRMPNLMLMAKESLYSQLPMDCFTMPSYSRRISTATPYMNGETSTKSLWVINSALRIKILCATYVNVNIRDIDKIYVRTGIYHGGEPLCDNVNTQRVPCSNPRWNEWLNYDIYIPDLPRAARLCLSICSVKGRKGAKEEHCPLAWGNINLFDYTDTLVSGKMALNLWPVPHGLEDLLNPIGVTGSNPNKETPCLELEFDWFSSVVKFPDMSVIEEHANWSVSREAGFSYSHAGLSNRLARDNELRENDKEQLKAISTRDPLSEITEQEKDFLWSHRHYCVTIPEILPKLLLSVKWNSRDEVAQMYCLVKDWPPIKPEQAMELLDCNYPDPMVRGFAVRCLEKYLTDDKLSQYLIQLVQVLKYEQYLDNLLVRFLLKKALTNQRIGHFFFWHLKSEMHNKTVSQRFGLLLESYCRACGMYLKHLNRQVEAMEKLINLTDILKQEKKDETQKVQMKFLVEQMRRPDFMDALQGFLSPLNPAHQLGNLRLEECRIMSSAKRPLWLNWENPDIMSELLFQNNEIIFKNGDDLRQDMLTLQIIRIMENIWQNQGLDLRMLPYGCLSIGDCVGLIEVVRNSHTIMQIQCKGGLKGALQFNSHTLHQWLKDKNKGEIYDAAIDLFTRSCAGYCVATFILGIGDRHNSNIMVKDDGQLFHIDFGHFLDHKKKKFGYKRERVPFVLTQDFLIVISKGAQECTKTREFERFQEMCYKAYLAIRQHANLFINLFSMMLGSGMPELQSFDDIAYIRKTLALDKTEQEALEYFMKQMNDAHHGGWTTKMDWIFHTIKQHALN
PI3Kα (alpha), sequence (P27986 whole entry partner): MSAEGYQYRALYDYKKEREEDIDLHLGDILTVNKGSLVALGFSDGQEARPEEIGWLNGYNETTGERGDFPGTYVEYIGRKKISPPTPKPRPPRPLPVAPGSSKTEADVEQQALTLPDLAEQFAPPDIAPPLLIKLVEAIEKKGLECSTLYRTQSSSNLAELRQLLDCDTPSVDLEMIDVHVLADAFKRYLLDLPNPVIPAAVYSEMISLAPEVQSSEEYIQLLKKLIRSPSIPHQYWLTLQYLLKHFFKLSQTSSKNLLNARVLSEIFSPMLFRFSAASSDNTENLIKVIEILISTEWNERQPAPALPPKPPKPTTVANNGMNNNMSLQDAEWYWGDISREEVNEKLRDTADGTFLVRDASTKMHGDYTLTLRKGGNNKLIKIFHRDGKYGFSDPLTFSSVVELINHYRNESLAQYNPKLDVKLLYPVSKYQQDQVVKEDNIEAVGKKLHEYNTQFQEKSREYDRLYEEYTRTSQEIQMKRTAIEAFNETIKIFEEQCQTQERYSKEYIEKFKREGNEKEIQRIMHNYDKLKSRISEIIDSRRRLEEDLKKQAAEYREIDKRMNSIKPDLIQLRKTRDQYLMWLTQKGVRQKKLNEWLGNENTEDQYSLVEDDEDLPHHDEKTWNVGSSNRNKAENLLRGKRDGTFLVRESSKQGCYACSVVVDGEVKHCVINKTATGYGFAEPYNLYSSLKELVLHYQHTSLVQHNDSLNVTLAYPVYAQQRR

| SMILES | Ki |
| --- | --- |
| C[C@H](Oc1cc2c3c(c1)nc(-c1ccc(-c4ncn[nH]4)cc1F)n3CCCCO2)C(N)=O [Example 293, (S)-2-((1-(2-Fluoro-4-(1H-1,2,4-triazol-3-yl)phenyl)-7,8,9,10-tetrahydro-6-oxa-2,10a-diazacycloocta[cd]inden-4-yl)oxy)propanamide] | 0.0222 nM |
| CC[C@H](Oc1cc2c3c(c1)nc(-c1ccc4oc(N)nc4c1)n3CCCCO2)C(=O)O [Example 313, (S)-2-((1-(2-Aminobenzo[d]oxazol-5-yl)-7,8,9,10-tetrahydro-6-oxa-2,10a-diazacycloocta[cd]inden-4-yl)oxy)butanoic acid] | 2.09 nM |
| NC(=O)[C@@H](Nc1cc2c3c(c1)nc(-c1ccc4[nH]ncc4c1)n3CCCO2)C1CC1 [Example 133, (S)-2-((1-(1H-Indazol-5-yl)-8,9-dihydro-7H-6-oxa-2,9a-diazabenzo[cd]azulen-4-yl)amino)-2-cyclopropylacetamide] | 43.4 nM |
| COc1ncc(-c2nc3cc(N[C@H](C(N)=O)C4CC4)cc4c3n2CCCO4)cc1Cl [Example 130, (S)-2-((1-(5-Chloro-6-methoxypyridin-3-yl)-8,9-dihydro-7H-6-oxa-2,9a-diazabenzo[cd]azulen-4-yl)amino)-2-cyclopropylacetamide] | 7.67 nM |
| NC(=O)c1cc(-c2nc3cc(N[C@H](C(N)=O)C4CC4)cc4c3n2CCCO4)ccc1F [Example 157, (S)-5-(4-((2-Amino-1-cyclopropyl-2-oxoethyl)amino)-8,9-dihydro-7H-6-oxa-2,9a-diazabenzo[cd]azulen-1-yl)-2-fluorobenzamide] | 16.5 nM |
| NC(=O)[C@@H](Nc1cc2c3c(c1)nc(-c1ccn4nccc4n1)n3CCCO2)C1CC1 [Example 228, (S)-2-Cyclopropyl-2-((1-(pyrazolo[1,5-a]pyrimidin-5-yl)-8,9-dihydro-7H-6-oxa-2,9a-diazabenzo[cd]azulen-4-yl)amino)acetamide] | 2.66 nM |
| CC[C@H](Oc1cc2c3c(c1)nc(-c1cc(F)c4oc(N)nc4c1)n3CCCCO2)C(N)=O [Example 272, (S)-2-((1-(2-Amino-7-fluorobenzo[d]oxazol-5-yl)-7,8,9,10-tetrahydro-6-oxa-2,10a-diazacycloocta[cd]inden-4-yl)oxy)butanamide] | < 0.02 nM |
| Nc1nc2cc(-c3nc4cc(Br)cc5c4n3CCCO5)ccc2o1 [Example 101, 5-(4-Bromo-8,9-dihydro-7H-6-oxa-2,9a-diazabenzo[cd]azulen-1-yl)benzo [d]oxazol 2-amine] | 7.75 nM |
| C[C@H](Oc1cc2c3c(c1)nc(-c1cc(F)c4sc(N)nc4c1)n3CCCCO2)C(N)=O [Example 285, (S)-2-((1-(2-Amino-7-fluorobenzo[d]thiazol-5-yl)-7,8,9,10-tetrahydro-6-oxa-2,10a-diazacycloocta[cd]inden-4-yl)oxy)propanamide] | 0.062 nM |
| NC(=O)[C@@H]1CCCN1c1cc2c3c(c1)nc(-c1ccc4[nH]cnc4c1)n3CCCO2 [Example 199, (S)-1-(1-(1H-Benzo[d]imidazol-5-yl)-8,9-dihydro-7H-6-oxa-2,9a-diazabenzo[cd]azulen-4-yl)pyrrolidine-2-carboxamide] | 33.2 nM |
| COC[C@@H](Oc1cc2c3c(c1)nc(-c1ccc4nc(N)sc4c1)n3CCCCO2)C(N)=O (single isomer, unassigned) [Example 304] | 0.127 nM |
| CC[C@@H](Oc1cc2c3c(c1)nc(-c1ccc(-c4nc[nH]n4)cc1)n3CCCCO2)C(N)=O (single isomer, unassigned) [Example 267] | 1.28 nM |
| COc1ccc(-c2nc3cc(N[C@H](C(N)=O)C4CC4)cc4c3n2CCCO4)c(F)c1 [Example 144, (S)-2-Cyclopropyl-2-((1-(2-fluoro-4-methoxyphenyl)-8,9-dihydro-7H-6-oxa-2,9a-diazabenzo[cd]azulen-4-yl)amino)acetamide] | 340 nM |
| NC(=O)[C@@H](Oc1cc2c3c(c1)nc(-c1cc(F)c4nc(N)sc4c1)n3CCCCO2)C1CC1 (single isomer, unassigned) [Example 280] | < 0.02 nM |
| C[C@H](Oc1cc2c3c(c1)nc(-c1ccc4oc(N)nc4c1)n3CCCCO2)C(N)=O [Example 204, (S)-2-((1-(2-Aminobenzo[d]oxazol-5-yl)-7,8,9,10-tetrahydro-6-oxa-2,10a-diazacycloocta[cd]inden-4-yl)oxy)propanamide] | < 0.02 nM |
| C[C@H](Oc1cc2c3c(c1)nc(-c1ccc4nc(N)cnc4c1)n3CCCCO2)C(N)=O [Example 244, (S)-2-((1-(2-Aminoquinoxalin-6-yl)-7,8,9,10-tetrahydro-6-oxa-2,10a-diazacycloocta[cd]inden-4-yl)oxy)propanamide] | < 0.02 nM |
| C[C@H](Oc1cc2c3c(c1)nc(-c1ccc(-c4nc[nH]n4)cc1)n3CCCCO2)C(N)=O [Example 243, (S)-2-((1-(4-(1H-1,2,4-Triazol-3-yl)phenyl)-7,8,9,10-tetrahydro-6-oxa-2,10a-diazacycloocta[cd]inden-4-yl)oxy)propanamide] | < 0.02 nM |
| C[C@H](Nc1cc2c3c(c1)nc(N1CCC(CO)CC1)n3CCCO2)C(N)=O [Example 140, (S)-2-[1-(4-Hydroxymethylpiperidin-1-yl)-8,9-dihydro-7H-6-oxa-2,9a-diazabenzo[cd]azulen-4-ylamino]propionamide] | 681 nM |
| NC(=O)[C@@H](Nc1cc2c3c(c1)nc(-c1ccn4ncnc4n1)n3CCCO2)C1CC1 [Example 156, (S)-2-((1-([1,2,4]triazolo[1,5-a]pyrimidin-5-yl)-8,9-dihydro-7H-6-oxa-2,9a-diazabenzo[cd]azulen-4-yl)amino)-2-cyclopropylacetamide] | 0.264 nM |
| Cc1nc2nc(-c3nc4cc(Br)cc5c4n3CCCO5)ccc2o1 [Example 102, 4-bromo-1-(2-methyloxazolo[4,5-b]pyridin-5-yl)-8,9-dihydro-7H-6-oxa-2,9a-diazabenzo[cd]azulene] | 322 nM |
| NC(=O)[C@@H](Nc1cc2c3c(c1)nc(-c1cnn(C4COC4)c1)n3CCCO2)C1CC1 [Example 210, (S)-2-Cyclopropyl-2-((1-(1-(oxetan-3-yl)-1H-pyrazol-4-yl)-8,9-dihydro-7H-6-oxa-2,9a-diazabenzo[cd]azulen-4-yl)amino)acetamide] | 285 nM |

Results, then the compound that gave them:

| Ki | SMILES |
| --- | --- |
| 821 nM | NC(=O)[C@@H](Nc1cc2c3c(c1)nc(-c1ccc4c(c1)NC(=O)CO4)n3CCCO2)C1CC1 [Example 131, (S)-2-Cyclopropyl-2-((1-(3-oxo-3,4-dihydro-2H-benzo[b][1,4]oxazin-6-yl)-8,9-dihydro-7H-6-oxa-2,9a-diazabenzo[cd]azulen-4-yl)amino)acetamide] |
| 234 nM | NC(=O)[C@@H](Nc1cc2c3c(c1)nc(-c1ccnc4sccc14)n3CCCO2)C1CC1 [Example 177, (S)-2-Cyclopropyl-2-((1-(thieno[2,3-b]pyridin-4-yl)-8,9-dihydro-7H-6-oxa-2,9a-diazabenzo[cd]azulen-4-yl)amino)acetamide] |
| 206 nM | COC(=O)c1cc(-c2nc3cc(N[C@H](C(N)=O)C4CC4)cc4c3n2CCCO4)ccc1OC [Example 158, (S)-Methyl 5-(4-((2-amino-1-cyclopropyl-2-oxoethyl)amino)-8,9-dihydro-7H-6-oxa-2,9a-diazabenzo[cd]azulen-1-yl)-2-methoxybenzoate] |
| 187 nM | NC(=O)[C@@H](Nc1cc2c3c(c1)nc(-c1cccc(OC(F)F)c1)n3CCCO2)C1CC1 [Example 143, (S)-2-Cyclopropyl-2-((1-(3-(difluoromethoxy)phenyl)-8,9-dihydro-7H-6-oxa-2,9a-diazabenzo[cd]azulen-4-yl)amino)acetamide] |
| 160 nM | COc1ccc(-c2nc3cc(N[C@H](C(N)=O)C4CC4)cc4c3n2CCCO4)cc1C(N)=O [Example 164, (S)-5-(4-((2-Amino-1-cyclopropyl-2-oxoethyl)amino)-8,9-dihydro-7H-6-oxa-2,9a-diazabenzo[cd]azulen-1-yl)-2-methoxybenzamide] |
| 1.61 nM | C[C@H](Oc1cc2c3c(nc(-c4ccc5oc(N)nc5c4)n3CCCO2)c1F)C(N)=O [Example 240, (S)-2-((1-(2-Aminobenzo[d]oxazol-5-yl)-3-fluoro-8,9-dihydro-7H-6-oxa-2,9a-diazabenzo[cd]azulen-4-yl)oxy)propanamide] |
| 0.988 nM | NC(=O)[C@@H](Nc1cc2c3c(c1)nc(-c1ccc4nc(N)oc4c1)n3CCCO2)C1CC1 [Example 207, (S)-2-((1-(2-Aminobenzo[d]oxazol-6-yl)-8,9-dihydro-7H-6-oxa-2,9a-diazabenzo[cd]azulen-4-yl)amino)-2-cyclopropylacetamide] |
| 0.638 nM | Nc1nc2cc(-c3nc4cc(-c5cnn(CCO)c5)cc5c4n3CCCO5)ccc2o1 [Example 152, 2-(4-(1-(2-Aminobenzo[d]oxazol-5-yl)-8,9-dihydro-7H-6-oxa-2,9a-diazabenzo[cd]azulen-4-yl)-1H-pyrazol-1-yl)ethanol] |
| 0.393 nM | NC(=O)[C@@H]1CCCN1c1cc2c3c(c1)nc(-c1ccc(-c4nc[nH]n4)cn1)n3CCCO2 [Example 226, (S)-1-(1-(5-(1H-1,2,4-Triazol-3-yl)pyridin-2-yl)-8,9-dihydro-7H-6-oxa-2,9a-diazabenzo[cd]azulen-4-yl)pyrrolidine-2-carb oxamide] |
| 0.298 nM | CC[C@@H](C(N)=O)n1cc(-c2cc3c4c(c2)nc(-c2ccc5oc(N)nc5c2)n4CCCO3)cn1 [Example 217, (S)-2-(4-(1-(2-Aminobenzo[d]oxazol-5-yl)-8,9-dihydro-7H-6-oxa-2,9a-diazabenzo[cd]azulen-4-yl)-1H-pyrazol-1-yl)butanamide] |
| 0.026 nM | NC(=O)[C@@H]1CCCN1c1cc2c3c(nc(-c4ccc5oc(N)nc5c4)n3CCCO2)c1F [Example 194, (S)-1-(1-(2-Aminobenzo[d]oxazol-5-yl)-3-fluoro-8,9-dihydro-7H-6-oxa-2,9a-diazabenzo[cd]azulen-4-yl)pyrrolidine-2-carb oxamide] |

same assay, conditions: read-out: PI3Kα-(alpha) ATP (Ki) micromolar

| Ki | SMILES |
| --- | --- |
| 0.501 nM | Nc1nc2cc(-c3nc4cc(Br)cc5c4n3CCCCO5)ccc2o1 [Example 172, 5-(4-bromo-7,8,9,10-tetrahydro-6-oxa-2,10a-diazacycloocta[cd]-inden-1-yl)benzo[d]oxazol-2-amine] |
